Assay results as given in ChEMBL document CHEMBL4346696, “PIM kinase inhibitors: Structural and pharmacological perspectives” (Eur J Med Chem, 2019).
Each block holds one molecule with its values, some of them ahead of it.

Assays:
[1] = tested on: HT-29; assay: Cytotoxicity against human HT-29 cells after 24 hrs by MTT assay; assay type: functional, cell-based; conditions: HT-29, 24 h
[2] = species: Homo sapiens; assay: Selectivity ratio of IC50 for PI3kdelta (unknown origin) to Ki for PIM1 (unknown origin)
[3] = species: Homo sapiens; assay: Selectivity ratio of IC50 for PI3kalpha (unknown origin) to Ki for PIM1 (unknown origin)
[4] = species: Homo sapiens; assay: Selectivity ratio of IC50 for PI3kgamma (unknown origin) to Ki for PIM1 (unknown origin)
[5] = target: T1, Serine/threonine-protein kinase pim-1 (Homo sapiens, UniProt P11309); assay: Inhibition of N-terminal GST-tagged recombinant human full length Pim-1 expressed in Escherichia coli cells
T1 sequence (P11309 whole entry): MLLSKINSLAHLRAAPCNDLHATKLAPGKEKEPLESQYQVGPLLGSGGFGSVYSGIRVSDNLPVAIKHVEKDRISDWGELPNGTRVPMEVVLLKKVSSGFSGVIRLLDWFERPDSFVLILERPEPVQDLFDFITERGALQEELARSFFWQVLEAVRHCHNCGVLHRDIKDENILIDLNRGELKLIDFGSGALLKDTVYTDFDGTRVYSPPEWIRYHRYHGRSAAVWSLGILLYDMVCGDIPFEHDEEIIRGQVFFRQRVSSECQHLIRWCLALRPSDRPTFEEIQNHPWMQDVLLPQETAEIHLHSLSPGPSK

[6] = target: T1, Serine/threonine-protein kinase pim-1; assay: Inhibition of PIM1 (unknown origin)
[7] = tested on: MCF7; assay: Cytotoxicity against human MCF7 cells after 24 hrs by MTT assay; assay type: functional, cell-based; conditions: MCF7, 24 h
[8] = Cytotoxicity against human […] cells after 24 hrs by MTT assay; assay type: functional, cell-based

Ki [5]: 7.7 nM
Compound: O=C1NC(=O)/C(=C/c2ccnc(N3CCC(CNCc4ccc5ccccc5n4)CC3)n2)S1

IC50 [6]: < 150 nM
Compound: CSc1ncc(-c2cc(-c3ccc(Br)cc3)[nH]c(=N)c2C#N)n1Cc1ccccc1
IC50 [1]: > 130000 nM

IC50 [6]: < 150 nM
Compound: CSc1ncc(-c2cc(-c3ccc(Br)cc3)[nH]c(=O)c2C#N)n1Cc1ccccc1
IC50 [1]: > 130000 nM

The remaining lines, values behind:

Compound: CSc1ncc(-c2cc(-c3ccc4c(c3)OCO4)[nH]c(=N)c2C#N)n1Cc1ccccc1
IC50 [1]: > 130000 nM

Compound: CC(C)(O)[C@H]1CC[C@H](Nc2ccc3ncc(-c4cccc(C(F)(F)F)c4)n3n2)CC1
Ratio [2]: 10 | Ratio [3]: 10 | Ratio [4]: 10

Compound: Cc1nc2sc3c(c2c(C)c1Br)NC(c1ccc(O)c(O)c1)NC3=O (centres undefined)
IC50 [7]: 60 to 1760 nM | IC50 [8]: 60 to 1760 nM

Compound: CSc1ncc(-c2cc(-c3ccc4c(c3)OCO4)[nH]c(=O)c2C#N)n1Cc1ccccc1
IC50 [1]: > 130000 nM

Compound: COc1cc(C2NC(=O)c3sc4nc(C)c(Br)c(C)c4c3N2)ccc1O (centres undefined)
IC50 [7]: 60 to 1760 nM | IC50 [8]: 60 to 1760 nM
